For series [1], the target named is Neuronal acetylcholine receptor. The series is described as follows: Binding affinity towards nicotinic acetylcholine receptor (nAChR). The class given is protein-complex assay.
Series [2] can be described thus: Toxicity in rats was determined by sc administration at a dose of 10 mg/kg. The conditions noted are these: rat, in vivo, read-out: Rate of death. Details: dose 10 mg/kg, route subcutaneous. The class given is organism-based.
Series [3] has as its system Mus musculus. Kind of series: In vivo analgesic activity using acetic acid writhing test in mice at a dose of 20 mg/kg by sc administration. The class given is functional. The conditions noted are these: route subcutaneous. A general note: In writhing tests, fewer writhes than in controls are read as antinociception.
Series [4] has as its system Mus musculus. The series is described as follows: In vivo analgesic activity using acetic acid writhing test in mice at a dose of 10 mg/kg by sc administration. To be noted: route subcutaneous. Type of series: functional.
Series [5] has as its system Mus musculus. The series is described as follows: In vivo analgesic activity using acetic acid writhing test in mice at a dose of 5 mg/kg by sc administration. The conditions noted are these: route subcutaneous. Type of series: functional.
Series [6] is described as follows: Toxicity in rats was determined by sc administration at a dose of 1 mg/kg. Type of series: organism-based. Details: dose 1 mg/kg, route subcutaneous. To be noted: rat, in vivo, read-out: Rate of death.
Series [7] has as its system Mus musculus. The series is described as follows: In vivo analgesic activity using acetic acid writhing test in mice at a dose of 1 mg/kg by sc administration. The conditions noted are these: route subcutaneous. The class given is functional.
Series [8] in a line: Toxicity in rats was determined by sc administration at a dose of 5 mg/kg. The class given is organism-based. Details: dose 5 mg/kg, route subcutaneous. To be noted: rat, in vivo, read-out: Rate of death.
Series [9] can be described thus: Toxicity in rats was determined by sc administration at a dose of 20 mg/kg. The class given is organism-based. Also noted: dose 20 mg/kg, route subcutaneous. To be noted: rat, in vivo, read-out: Rate of death.

Structures are written as SMILES.

This is an account of results in ChEMBL document CHEMBL1136475, “Synthesis and analgesic activity of hydrochlorides and quaternary ammoniums of epibatidine incorporated with amino acid ester” (Bioorg Med Chem Lett, 2003).

Broadly, the Ki is a dissociation constant, usually derived from enzyme kinetics or from competition with a known ligand. Read a low Ki as higher affinity. In [1], `c1cncc(CN2C3CCC2CC3)c1` showed a Ki of 98 nM.

Turning to `CCOC(=O)CCC(NC(=O)C1C(c2ccc(Cl)nc2)C2CCC1[N+]2(C)Cc1ccccc1)C(=O)OCC.[I-]` (configuration not stated), in [2], the mortality worked out at 80%. For the same molecule, the Inhibitory rate is 1% in the series on Mus musculus [3] and 99.3% in the series on Mus musculus [4].

Regarding `CCOC(=O)C1CSCN1C(=O)C1C(c2ccc(Cl)nc2)C2CCC1[N+]2(C)Cc1ccccc1.[I-]` (configuration not stated), the Inhibitory rate in the series with Mus musculus [5] came out at 49.8%; with Mus musculus [7] it was 9.1%. Also, the mortality in series [6] and in series [8] was 0% in each case.

`CCOC(=O)CNC(=O)C1C(c2ccc(Cl)nc2)C2CCC1[N+]2(C)Cc1ccccc1.[I-]` (configuration not stated) displayed an Inhibitory rate in the series on Mus musculus [3] of 66.6%. For the same molecule, the mortality in series [9] amounted to 0%.

Turning to `C[N+]1(Cc2ccccc2)CCN(C(=O)CCCCCCC(=O)N2CC[N+](C)(Cc3ccccc3)CC2)CC1.[Br-].[Br-]`, the Inhibitory rate with Mus musculus [3] amounted to 80.3%.

Turning to `CCOC(=O)CCC(NC(=O)C1C(c2ccc(Cl)nc2)C2CCC1N2Cc1ccccc1)C(=O)OCC.Cl` (configuration not stated), in the series with Mus musculus [3], the Inhibitory rate is 27.1%. Further, the mortality in series [9] is 0%.

Molecule `CCOC(=O)CNC(=O)C1C(c2ccc(Cl)nc2)C2CCC1N2Cc1ccccc1.Cl` (configuration not stated) displayed an Inhibitory rate with Mus musculus [3] of 26.1%. Besides, the mortality in series [9] turned out to be 0%.

In the series with Mus musculus [3], `CCOC(=O)C1CSCN1C(=O)C1C(c2ccc(Cl)nc2)C2CCC1N2Cc1ccccc1.Cl` (configuration not stated) came in with an Inhibitory rate of 12.3%. In addition, the mortality in series [9] was found to be 0%.
